The text below walks through data of patent publication US20190142810A1, “MITOCHONDRIAL INHIBITORS FOR THE TREATMENT OF PROLIFERATION DISORDERS” (Basilea Pharmaceutica International AG, priority 2016, published 2019).

One test concerns HeLa galactose cells. Put plainly: Cell growth and proliferation assay of HeLa galactose cells (crystal violet). The class given is cell-based. Particulars: 72 hours incubation, crystal violet staining, absorbance at 590 nm. The procedure:
The cervical tumor cell line HeLa (ATCC, CCL-2) was cultivated in DMEM medium (Invitrogen cat. no. 11971, 4.5 g/L high glucose) containing 10% fetal calf serum (Sigma cat. no. F9665) and 1% Penicillin/Streptomycin (Sigma cat. no. P0781) at 37° C. in 5% CO2. HeLa galactose cells (i.e. HeLa cells that grow in high concentrations of galactose) were generated from HeLa glucose cells (i.e. HeLa cells that grow in high concentrations of glucose) by gradually changing the amount of glucose in the media to zero glucose in the presence of galactose as a sugar source (50% galactose/50% glucose media for one week, then 75% galactose/25% glucose media for one week, to 100% galactose media in the third week). Galactose media (Invitrogen cat. no. 11966) was supplemented with 10 mM galactose (Sigma cat. no. G5388).
Cell Growth and Proliferation Assay of HeLa Galactose and Glucose Cells
HeLa galactose cells and HeLa glucose cells were seeded in 96 well plates (TPP, cat. no 92696) at 2000 and 1500 cells/well, respectively, in 100 μL of complete medium. After overnight incubation the cells were incubated for 72 hours in complete medium containing 0.001% DMSO or compounds (final concentration of DMSO 0.001%). After the medium was removed, cells were fixed and stained by adding 50 μL crystal violet staining (0.2% crystal violet (Sigma-Aldrich cat. no. C0775) in 50% methanol) per well. The plates were incubated for 1 hour at room temperature. Subsequently the stain was decanted and plates were washed 4 times with de-mineralized water. Plates were air-dried for 2 hours. The stain was dissolved by adding 100 μL buffer (0.1 M Tris pH 7.5, 0.2% SDS, 20% ethanol) per well and shaking the plates. Absorbance at 590 nm was measured using a SpectraMax® 250 plate reader (Molecular Devices). Antiproliferative/growth inhibition IC50s were calculated from concentration-response curves using GraphPad Prism software.

The test system of test [1] is Oxygen consumption (mitochondrial function). Briefly: Oxygen consumption assay (MitoXpress probe). The class given is cell-based. Particulars: MitoXpress probe signal, kinetic analysis at 37° C. for 5 hours, compared to untreated cells. The source says:
Oxygen consumption is one of the most informative and direct measures of mitochondrial function and can be measured, for example, by using the MitoXpress® assay (Luxcel MX-2001, Luxcel Biosciences). The MitoXpress® probe is one of a family of phosphorescent oxygen sensitive probes. The assay exploits the ability of oxygen to quench the excited state of the MitoXpress® probe. As the test material respires (i.e. the cells), oxygen is depleted in the surrounding solution/environment, which increases the probe phosphorescence signal. Changes in oxygen consumption reflecting changes in mitochondrial activity are seen as changes in the MitoXpress® probe signal over time.
Cells were seeded in 96 well black plates with transparent bottoms (Greiner Bio-One cat. no. 655090) at a density of 50′000 cells/well in a final volume of 100 μL. After 24 hours the incubation media was removed and 150 μL of fresh media containing inhibitors at different concentrations was added to each well. Then, 10 μL of MitoXpress® and 150 μL mineral oil were added per well. Reading from the top of the plate, kinetic analysis was performed at 37° C. for 5 hours using a Synergy 4 plate reader (BioTek) and Time-resolved Fluoresence (TRF) wavelengths of 380/11 nm excitation and 650/20 nm emission or 665/40 emission (30 microsecond delay time, 100 microsecond integration time, gain or sensitivity settings set at either medium or high). IC50s were calculated as the concentration that inhibits 50% of the phosphorescent oxygen sensitive probe signal (MitoXpress®) as compared to untreated cells.

SMILES strings stand for the structures. pIC50: −log10 of the molar value.

With `Cc1nsc(NC(=O)N2CCC(Cc3ccc(Cl)cc3F)C(C)C2)n1` (single isomer, unassigned) [Example 84a, 4-[(4-chloro-2-fluoro-phenyl)methyl]-3-methyl-N-(3-methyl-1,2,4-thiadiazol-5-yl)piperidine-1-carboxamide], the pIC50 with HeLa galactose cells (Homo sapiens, HeLa, 72 h) is 7.33; in test [1] it was 7.24. Consider `Cc1nsc(NC(=O)N2CCC(Cc3ccc(Cl)cc3F)C(C)C2)n1` (single isomer, unassigned) [Example 84b, 4-[(4-chloro-2-fluoro-phenyl)methyl]-3-methyl-N-(3-methyl-1,2,4-thiadiazol-5-yl)piperidine-1-carboxamide], for which the negative-log IC50 (pIC50) in the test with HeLa galactose cells was 7.12; in test [1], 6.92. For `Cc1nsc(NC(=O)N2CCC(Cc3ccc(F)cc3)CC2)n1` [Example 1, 1-Piperidinecarboxamide, 4-[(4-fluorophenyl)methyl]-N-(3-methyl-1,2,4-thiadiazol-5-yl)-], the pIC50 in the test on HeLa galactose cells (Homo sapiens, HeLa, 72 h) is 6.79; in test [1] (5 h), 6.71. Regarding `Cc1nsc(NC(=O)N2CCC(Cc3ccc(Cl)cc3)CC2)n1` [Example 2], the pIC50 in the test on HeLa galactose cells (Homo sapiens, HeLa, 72 h) is 7.39; in test [1] (5 h), over 7.00.

As for `COc1ccc(CC2CCN(C(=O)Nc3nc(C)ns3)CC2)cc1` [Example 3], the negative logarithm of the IC50 (pIC50) is 7.10 in the test on HeLa galactose cells (Homo sapiens, HeLa, 72 h) and over 7.00 in test [1] (5 h). In the same order, the values of `Cc1nsc(NC(=O)N2CCC(Cc3ccc(N)cc3)CC2)n1` [Example 4, 4-[(4-aminophenyl)methyl]-N-(3-methyl-1,2,4-thiadiazol-5-yl)piperidine-1-carboxamide] are 6.34 and 6.40. On the same counts, the results for `Cc1ccc(CC2CCN(C(=O)Nc3nc(C)ns3)CC2)cc1` [Example 5] are 7.44 and 7.00. On the same counts, the results for `COCc1ccc(CC2CCN(C(=O)Nc3nc(C)ns3)CC2)cc1` [Example 6] are 7.51 and 6.70. Consider `Cc1ccc(SC2CCN(C(=O)Nc3nc(C)ns3)CC2)cc1` [Example 7, N-(3-methyl-1,2,4-thiadiazol-5-yl)-4-(p-tolylsulfanyl)piperidine-1-carboxamide], for which the pIC50 with HeLa galactose cells (Homo sapiens, HeLa, 72 h) is 6.85; in test [1] (5 h) it was 6.30. In the same order, the values of `Cc1nsc(NC(=O)N2CCC(Cc3ccc(Cl)cc3Cl)CC2)n1` [Example 8] are 7.49 and 6.70. On to `Cc1nsc(NC(=O)N2CCC(Cc3ccc(Cl)cc3F)CC2)n1` [Example 9], for which the pIC50 was 7.44 with HeLa galactose cells (Homo sapiens, HeLa, 72 h) and over 7.00 in test [1] (5 h). For `Cc1nsc(NC(=O)N2CCC(Cc3ccc(C(F)(F)F)cc3)CC2)n1` [Example 10], the pIC50 in the test with HeLa galactose cells (Homo sapiens, HeLa, 72 h) was 7.44; in test [1] (5 h), 6.70. With `Cc1nsc(NC(=O)N2CCC(Cc3ccc(C(C)(C)C)cc3)CC2)n1` [Example 11], the negative logarithm of the IC50 (pIC50) is 6.71 in the test on HeLa galactose cells (Homo sapiens, HeLa, 72 h) and 5.89 in test [1] (5 h). In the same order, the values of `Cc1ccc(CC2CCN(C(=O)Nc3nc(C)ns3)CC2)c(C)c1` [Example 12] are 7.72 and 6.30. On the same counts, the results for `COc1ccc(CC2CCN(C(=O)Nc3nc(C)ns3)CC2)c(C)c1` [Example 13, 4-[(4-methoxy-2-methyl-phenyl)methyl]-N-(3-methyl-1,2,4-thiadiazol-5-yl)piperidine-1-carboxamide] are 6.51 and 6.46. In the same order, the values of `Cc1nsc(NC(=O)N2CCC(Cc3ccc(Cl)cc3C)CC2)n1` [Example 14] are 6.84 and 6.70. `Cc1ccc(CC2CCN(C(=O)Nc3nc(C)ns3)CC2)nc1` [Example 15]: the pIC50 is 6.57 in the test with HeLa galactose cells (Homo sapiens, HeLa, 72 h) and 6.39 in test [1] (5 h). On the same counts, the results for `Cc1nsc(NC(=O)N2CCC(Cc3ccc(C(C)C)cc3)CC2)n1` [Example 16] are 6.59 and 6.49. On the same counts, the results for `CCc1ccc(CC2CCN(C(=O)Nc3nc(C)ns3)CC2)cc1` [Example 17] are 6.79 and 6.61. In the same order, the values of `Cc1ccc(OC2CCN(C(=O)Nc3nc(C)ns3)CC2)cc1` [Example 18] are 6.20 and 6.29.

As for `Cc1nsc(NC(=O)N2CCC(Oc3ccc(Cl)cc3)CC2)n1` [Example 19, 4-(4-chlorophenoxy)-N-(3-methyl-1,2,4-thiadiazol-5-yl)piperidine-1-carboxamide], the negative logarithm of the IC50 (pIC50) in the test with HeLa galactose cells (Homo sapiens, HeLa, 72 h) is 6.58; in test [1] (5 h), 6.31. In the same order, the values of `Cc1nsc(NC(=O)N2CCC(Oc3ccc(Cl)cc3Cl)CC2)n1` [Example 20] are 6.91 and 6.43.

Consider `Cc1nsc(NC(=O)N2CCC(=Cc3ccc(Cl)cc3Cl)CC2)n1` [Example 21], for which the pIC50 was 6.68 in the test with HeLa galactose cells (Homo sapiens, HeLa, 72 h) and 6.68 in test [1] (5 h). Regarding `Cc1nsc(NC(=O)N2CCC(Cc3ccc(Cl)cc3N)CC2)n1` [Example 24], the negative-log IC50 (pIC50) in the test on HeLa galactose cells (Homo sapiens, HeLa, 72 h) is 6.86; in test [1] (5 h), 6.51.

Consider `Cc1nsc(NC(=O)N2CCC(Cc3c(F)cc(Cl)cc3F)CC2)n1` [Example 25, 4-[(4-chloro-2,6-difluoro-phenyl)methyl]-N-(3-methyl-1,2,4-thiadiazol-5-yl)piperidine-1-carboxamide], for which the negative logarithm of the IC50 (pIC50) is 7.74 with HeLa galactose cells (Homo sapiens, HeLa, 72 h) and 7.26 in test [1] (5 h). As to `Cc1nsc(NC(=O)N2CCC(=Cc3c(F)cc(Cl)cc3F)CC2)n1` [Example 26, 4-[(4-chloro-2,6-difluoro-phenyl)methylene]-N-(3-methyl-1,2,4-thiadiazol-5-yl)piperidine-1-carboxamide], the negative logarithm of the IC50 (pIC50) in the test with HeLa galactose cells (Homo sapiens, HeLa, 72 h) is 7.82; in test [1] (5 h), 7.64. In the same order, the values of `Cc1ccc(CC2CCN(C(=O)Nc3nc(C)ns3)CC2)c(F)c1` [Example 27, 4-[(2-fluoro-4-methyl-phenyl)methyl]-N-(3-methyl-1,2,4-thiadiazol-5-yl)piperidine-1-carboxamide] are 7.23 and 7.08. On the same counts, the results for `Cc1nsc(NC(=O)N2CCC(Cc3ccc(C)c(C)c3)CC2)n1` [Example 28, 4-[(3,4-dimethylphenyl)methyl]-N-(3-methyl-1,2,4-thiadiazol-5-yl)piperidine-1-carboxamide] are 6.60 and 6.48. In the same order, the values of `Cc1nsc(NC(=O)N2CCC(Cc3ccc(C)c(F)c3)CC2)n1` [Example 29] are 6.59 and 6.69. With `COc1ccc(CC2CCN(C(=O)Nc3nc(C)ns3)CC2)c(F)c1` [Example 30], the pIC50 was 7.23 in the test on HeLa galactose cells (Homo sapiens, HeLa, 72 h) and 6.75 in test [1] (5 h). The compound `Cc1nsc(NC(=O)N2CCC(C(=O)c3ccc(C#N)cc3F)CC2)n1` [Example 171] had a negative-log IC50 (pIC50) in the test with HeLa galactose cells (Homo sapiens, HeLa, 72 h) of 7.17. Regarding `Cc1cc(NC(=O)N2CCC(C(=O)c3ccc(C#N)cc3F)CC2)ccn1` [Example 172], the pIC50 in the test on HeLa galactose cells (Homo sapiens, HeLa, 72 h) was 6.90. As for `Cc1cc(NC(=O)N2CCC(C(=O)c3c(F)cc(C#N)cc3F)CC2)ccn1` [Example 174], in the test with HeLa galactose cells (Homo sapiens, HeLa, 72 h), the negative-log IC50 (pIC50) was 6.80. `Cc1cc(NC(=O)N2CCC(=Cc3c(F)cc(C#N)cc3F)CC2)ccn1` [Example 175] gave a pIC50 in the test with HeLa galactose cells (Homo sapiens, HeLa, 72 h) of 7.24. The compound `O=C(Nc1ccnc(CO)c1)N1CCC(=Cc2ccc(Cl)cc2F)CC1` [Example 177, 4-[(4-chloro-2-fluoro-phenyl)methylene]-N-[2-(hydroxymethyl)-4-pyridyl]piperidine-1-carboxamide] had a pIC50 in the test on HeLa galactose cells (Homo sapiens, HeLa, 72 h) of 7.02. Take `N#CCc1cc(NC(=O)N2CCC(=Cc3ccc(Cl)cc3F)CC2)ccn1` [Example 178, 4-[(4-chloro-2-fluoro-phenyl)methylene]-N-[2-(cyanomethyl)-4-pyridyl]piperidine-1-carboxamide]: the pIC50 in the test with HeLa galactose cells (Homo sapiens, HeLa, 72 h) was 6.81. The same measure, in the same setting: the result for `NCc1cc(NC(=O)N2CCC(=Cc3c(F)cc(Cl)cc3F)CC2)ccn1` [Example 180, N-[2-(aminomethyl)-4-pyridyl]-4-[(4-chloro-2,6-difluoro-phenyl)methylene]piperidine-1-carboxamide] reads 6.48.
